Where two headings read alike, the source gives them in different places.
What was measured:
Assay type in all cases: cell-based
Parameters in all cases: Percent inhibition compared to vehicle: concentration or dose not given beside the values
[1] = test system: MCF-7 cells stably expressing EF1 HA-ER-α L536P; test: cells; details: EF1 HA-ER-α L536P; for Percent inhibition compared to vehicle: 5-Day Incubation; for Efficacy (Emax): Day 5 relative to Day 0; for EC50: read-out: Potency (EC50; nM)
From the text: (§1) MCF-7 Mutant ER-α Stable Cell Line Generation: MCF-7 cells stably expressing wild-type or ER-α mutants were generated by subcloning ESR1 wild-type and mutant cDNAs containing an amino terminal hemagglutinin tag into pCDH-EF1-MCS-(PGK-Puro) (referred to as EF1 HA-ER-α) and pCDH-UbC-MCS-EF1-Hygro (referred to as UbC HA-ER-α) (System Biosciences). The resulting plasmids, in addition to an empty vector negative control, were subsequently cotransfected into HEK293T cells with the pPACKH1 packaging plasmid mix (System Biosciences) according to the manufacturer's protocol. Four days post transfection lentiviral particles were purified from the cell medium, tiered and stored at −80° C. MCF-7 cells were transduced with the purified viral particles and stable cell lines were selected by growth in RPMI containing 10% FBS plus 1 μG/mL puromycin or 200 μG/mL hygromycin for pCDH-EF1-MCS-(PGK-Puro) and pCDH-UbC-MCS-EF1-Hygro, respectively.
(§2) MCF-7 Stable Cell Line Viability: MCF-7 cells were enumerated with a hemacytometer adjusted to a concentration of 40,000 cells per mL in Phenol Free RPMI containing 10% CSS with NEAA and Sodium Pyruvate. 16 microliters of the cell suspension was added to each well of a 384 well tissue culture treated white clear bottom polystyrene plate (Corning) using a Matrix 16 channel electronic pipette. The cells were incubated overnight to allow the cells to adhere. The following day, 16 microliters of Phenol Free RPMI containing 10% CSS with NEAA and Sodium Pyruvate was added to the wells of one plate, followed by 16 μL of CellTiter-Glo (Promega, Madison Wis.) luminescent cell viability reagent using a Matrix 16 channel electronic pipette. […] The “average” of the relative luminescence units (RLUs) of the wells are considered to be the baseline value at time=zero. In addition, a 10 point, 1:5 serial dilution in DMSO (Sigma-Aldrich) was performed using Matrix 12 channel electronic pipette, including DMSO only as […]. 4 μL of each dilution was then added to 196 μL of RPMI containing 10% CSS with NEAA and Sodium Pyruvate. 16 μL of medium containing compound was added to the cells at a final concentration ranging from 10 μM to 5 pM. Compound dilution in media and subsequent addition to cells were carried out using Matrix 12 channel electronic pipettes. After 5 day compound exposure, 16 μL of CellTiter-Glo (Promega, Madison Wis.) luminescent cell viability reagent was added to the cells using a Matrix 16 channel electronic pipette. CellTiter-Glo added to 32 μL of medium without cells was used to obtain a background value. […] The relative luminescence units (RLUs) of each well were measured, and relative proliferation (fold) of each sample was determined as follows: (RLU sample−RLU background)/(RLU at T=0)=relative proliferation
(§3) The UbC promoter is reported by the manufacturer (System Biosciences) to express low to moderate RNA levels while the EF1 promoter expresses high levels (System Biosciences).

[2] = test system: MCF-7 cells stably expressing UbC HA-ER-α L536P; test: cells
From the text: as §1, §2, §3

[3] = test system: MCF-7 cells stably expressing EF1 HA-ER-α L536R; test: cells; details: EF1 HA-ER-α L536R; for Percent inhibition compared to vehicle: 5-Day Incubation; for Efficacy (Emax): Day 5 relative to Day 0; for EC50: read-out: Potency (EC50; nM)
From the text: as §1, §2, §3

[4] = test system: MCF-7 cells stably expressing UbC HA-ER-α Y537N; test: cells; details: UbC HA-ER-α Y537N; for Percent inhibition compared to vehicle: 5-Day Incubation; for Efficacy (Emax): Day 5 relative to Day 0
From the text: as §1, §2, §3

[5] = test system: MCF-7 cells stably expressing EF1 HA-ER-α Y537N; test: cells; details: EF1 HA-ER-α Y537N; for Percent inhibition compared to vehicle: 5-Day Incubation; for Efficacy (Emax): Day 5 relative to Day 0; for EC50: read-out: Potency (EC50; nM)
From the text: as §1, §2, §3

[6] = test system: MCF-7 cells stably expressing UbC HA-ER-α L536R; test: cells; details: UbC HA-ER-α L536R; for Efficacy (Emax): Day 5 relative to Day 0
From the text: as §1, §2, §3

[7] = test system: MCF-7 cells (negative control); test: MCF-7 Stable Cell Line Viability (UbC HA-ER-α series)
From the text: as §1, §2, §3

[8] = test system: MCF-7 cells stably expressing UbC HA-ER-α wild-type; test: as above; details: UbC HA-ER-α Wild-type; for Percent inhibition compared to vehicle: 5-Day Incubation; for Efficacy (Emax): Day 5 relative to Day 0
From the text: as §1, §2, §3

[9] = Antagonist Mode, −E2 (Table 27)
[10] = Agonist Mode, −E2, Day 5 relative to Day 0
[11] = Agonist Mode, −E2, read-out: Potency (EC50; nM)
[12] = Antagonist Mode, +E2, 5-Day Incubation
[13] = Antagonist Mode, +E2, Day 5 relative to Day 0
[14] = Antagonist Mode, +E2, read-out: Potency (EC50; nM)
[15] = Receptor None (MCF-7 negative control), Agonist Mode, −E2, Day 5 relative to Day 0
[16] = Homo sapiens, MCF7, read-out: Potency (EC50; nM), Agonist Mode, −E2

CCC(=C(c1ccc(O)cc1)c1ccc(OCCN(C)C)cc1)c1ccccc1 [4-Hydroxytamoxifen]
Percent inhibition compared to vehicle ([1]; Agonist Mode, −E2): 58% | Efficacy (Emax) ([1]; Agonist Mode, −E2): 3.47 ± 0.03 | EC50 ([1]; Agonist Mode, −E2): 4.39 ± 0.723 nM | Percent inhibition compared to vehicle ([1]; Antagonist Mode, +E2): 60% | Efficacy (Emax) ([1]; Antagonist Mode, +E2): 3.64 ± 0.26 | EC50 ([1]; Antagonist Mode, +E2): 9.22 ± 0.546 nM | EC50 [1, 9]: 4.39 ± 0.723 nM | Percent inhibition compared to vehicle ([2]; Agonist Mode, −E2, 5-Day Incubation): 35% | Efficacy (Emax) [2, 10]: 2.06 ± 0.19 | EC50 [2, 11]: 0.821 ± 0.726 nM | Percent inhibition compared to vehicle [2, 12]: 61% | Efficacy (Emax) [2, 13]: 2.31 ± 0.27 | EC50 [2, 14]: 2.13 ± 4.68 nM | Percent inhibition compared to vehicle ([3]; Agonist Mode, −E2): 43% | Efficacy (Emax) ([3]; Agonist Mode, −E2): 3.91 ± 0.04 | EC50 ([3]; Agonist Mode, −E2): 7.14 ± 6.64 nM | Percent inhibition compared to vehicle ([3]; Antagonist Mode, +E2): 47% | Efficacy (Emax) ([3]; Antagonist Mode, +E2): 3.65 ± 0.29 | EC50 ([3]; Antagonist Mode, +E2): 19 ± 18.2 nM | EC50 [3, 9]: 7.14 ± 6.64 nM | Percent inhibition compared to vehicle ([4]; Agonist Mode, −E2): 46% | Efficacy (Emax) ([4]; Agonist Mode, −E2): 2.34 ± 0.29 | EC50 [4, 11]: 1.58 ± 0.955 nM | Percent inhibition compared to vehicle ([4]; Antagonist Mode, +E2): 65% | Efficacy (Emax) ([4]; Antagonist Mode, +E2): 2.27 ± 0.07 | EC50 [4, 14]: 5.03 ± 0.765 nM | Percent inhibition compared to vehicle ([5]; Agonist Mode, −E2): 60% | Efficacy (Emax) ([5]; Agonist Mode, −E2): 2.43 ± 0.13 | EC50 ([5]; Agonist Mode, −E2): 6.04 ± 1.36 nM | Percent inhibition compared to vehicle ([5]; Antagonist Mode, +E2): 57% | Efficacy (Emax) ([5]; Antagonist Mode, +E2): 2.39 ± 0.24 | EC50 ([5]; Antagonist Mode, +E2): 5.25 ± 2.84 nM | EC50 [5, 9]: 6.04 ± 1.36 nM | Efficacy (Emax) ([6]; Agonist Mode, −E2): 2.26 ± 0.36 | EC50 [6, 11]: 1.06 ± 0.714 nM | Percent inhibition compared to vehicle [6, 12]: 61% | Efficacy (Emax) ([6]; Antagonist Mode, +E2): 2.34 ± 0.18 | EC50 [6, 14]: 6.09 ± 4.42 nM | Percent inhibition compared to vehicle ([7]; Receptor None (MCF-7 negative control), Agonist Mode, −E2, 5-Day Incubation): 19% | Efficacy (Emax) [7, 15]: 1.42 ± 0.43 | EC50 ([7]; Receptor None (MCF-7 negative control), Agonist Mode, −E2, read-out: Potency (EC50; nM)): 263 ± 525 nM | Percent inhibition compared to vehicle ([7]; Receptor None (MCF-7 negative control), Antagonist Mode, +E2, 5-Day Incubation): 58% | Efficacy (Emax) ([7]; Receptor None (MCF-7 negative control), Antagonist Mode, +E2, Day 5 relative to Day 0): 1.34 ± 0.07 | EC50 ([7]; Receptor None (MCF-7 negative control), Antagonist Mode, +E2, read-out: Potency (EC50; nM)): 2.47 ± 1.78 nM | Percent inhibition compared to vehicle ([8]; Agonist Mode, −E2): 14% | Efficacy (Emax) ([8]; Agonist Mode, −E2): 1.58 ± 0.16 | EC50 [8, 11]: 0.626 ± 0.528 nM | Percent inhibition compared to vehicle ([8]; Antagonist Mode, +E2): 68% | Efficacy (Emax) ([8]; Antagonist Mode, +E2): 1.57 ± 0.08 | EC50 [8, 14]: 2.95 ± 2.51 nM

C[C@]12CC[C@@H]3c4ccc(O)cc4CC[C@H]3[C@@H]1CC[C@@H]2O [17β-Estradiol]
Efficacy (Emax) ([1]; Agonist Mode, −E2): 8.49 ± 0.94 | Efficacy (Emax) ([1]; Antagonist Mode, +E2): 9.07 ± 0.12 | Efficacy (Emax) [2, 10]: 5.06 ± 0.76 | Efficacy (Emax) [2, 13]: 5.66 ± 0.52 | EC50 [2, 16]: 0.212 ± 0.401 nM | Efficacy (Emax) ([3]; Agonist Mode, −E2): 6.93 ± 1.50 | Efficacy (Emax) ([3]; Antagonist Mode, +E2): 6.83 ± 1.36 | EC50 [4, 16]: 0.126 ± 0.233 nM | Efficacy (Emax) ([4]; Antagonist Mode, +E2): 6.49 ± 0.97 | Efficacy (Emax) ([5]; Agonist Mode, −E2): 5.52 ± 0.43 | EC50 [6, 16]: 0.008 ± 0.006 nM | Efficacy (Emax) ([6]; Agonist Mode, −E2): 5.72 ± 0.74 | Efficacy (Emax) ([6]; Antagonist Mode, +E2): 5.92 ± 0.67 | EC50 ([7]; Homo sapiens, MCF7, Receptor None (MCF-7 negative control), Agonist Mode, −E2, read-out: Potency (EC50; nM)): 0.279 ± 0.518 nM | Efficacy (Emax) [7, 15]: 4.12 ± 0.88 | EC50 [8, 16]: 0.101 ± 0.16 nM | Efficacy (Emax) ([8]; Agonist Mode, −E2): 4.43 ± 0.88 | Efficacy (Emax) ([8]; Antagonist Mode, +E2): 5.12 ± 1.52

Source: patent publication US9855270B2, “Methods and compositions for modulating estrogen receptor mutants” (priority 2014, dated 2018)
